{"source": "patent US12133839B2", "about": "“Cannabinoid derivatives and methods for their preparation” (priority 2018, dated 2024)", "key": {"[1]": {"test_system": "Cytochrome P450 (Cy-P450)"}, "Cy-P450": {"test_system": "Cy-P450", "conditions": "compared with CBD"}}, "data": [{"smiles": "CCCCCc1cc(O)c(C2CC(C)CCC2C(C)C)c(O)c1", "note": "(centres unmarked) [Tetrahydro CBD (II), Tetrahydrocannabidiol]", "values": [{"measurement": "duration of the increased CBD activity", "setting": "[1]", "value": "only a few minutes"}, {"measurement": "increase in CBD activity, in effect and duration", "setting": "[1]; compared with CBD", "value": "approximately double"}, {"measurement": "oxidation by Cy-P450", "setting": "Cy-P450", "value": "slower oxidation"}]}, {"smiles": "CCCCCc1cc(O)c(C2CC(C)CCC2C(C)C)c(O)c1C(=O)CC", "note": "(centres unmarked) [[Ar]-Propionyl Tetrahydrocannabidiol]", "values": [{"measurement": "time for which THC metabolism is delayed", "setting": "[1]", "value": "up to 48 hours"}]}, {"smiles": "CCCCCc1cc(O)c(C2CC(C)CCC2C(C)C)c(O)c1C(C)=O", "note": "(centres unmarked) [Tetradhydro 2′-acetyl CBD (III), [Ar]-Acetyl Tetrahydrocannabidiol]", "values": [{"measurement": "time for which formation of 11-Hydroxy THC is prevented (enhanced CBD effect)", "setting": "[1]", "value": "about one"}]}]}
